Test system: reductase RDR
Assay: Substrate specificity of the reductase RDR (NADH oxidation, decrease in absorbance at 340 nm)
Format: biochemical, Devosia riboflavina IFO 13584
Settings: substrate 1 mM, NADH 0.25 mM, 100 mM phosphate buffer pH 6.5, 0.33% (v/v) dimethyl sulfoxide, 30° C.

Row | Compound | % activity (relative value, activity to N-benzyl-3-pyrrolidinone taken as 100%)
1 | CCC(=O)Cc1ccccc1 [1-phenyl-2-butanone] | 147%
2 | CC(=O)c1ccccn1 [2-acetylpyridine] | 13%
3 | CC(=O)c1ccc[nH]1 [2-acetylpyrrole] | 70%
4 | CCC(C)=O [2-butanone] | 280%
5 | O=C(CCl)c1cccc(Cl)c1 [2-chloro-1-(3′-chlorophenyl)ethanone] | 463%
6 | CCCCCC(C)=O [2-heptanone] | 2777%
7 | CCCCC(C)=O [2-hexanone] | 5043%
8 | O=C(CO)c1ccccc1 [2-hydroxyacetophenone] | 30%
9 | CCC(=O)C(=O)O [2-keto-n-butyric acid] | 15%
10 | CC(C=O)c1ccccc1 (stereo not drawn) [2-phenylpropionaldehyde] | 706%
11 | O=Cc1ccccn1 [2-pyridinecarbaldehyde] | 82%
12 | O=C1CCc2ccccc2C1 [2-tetoralone] | 1721%
13 | COc1ccc(C(C)=O)cc1OC [3,4-dimethoxyacetophenone] | 2073%
14 | CC(=O)c1cccnc1 [3-acetylpyridine] | 788%
15 | O=CCCc1ccccc1 [3-phenylpropionaldehyde] | 685%
16 | CC(=O)c1ccncc1 [4-acetylpyridine] | 6448%
17 | CC(=O)c1ccc(F)cc1 [4-fluoroacetophenone] | 366%
18 | CC(=O)CCO [4-hydroxy-2-butanone] | 33%
19 | CC(=O)CC(C)C [4-methyl-2-pentanone] | 962%
20 | COc1cc2c(cc1OC)CC(=O)CC2 [6,7-dimethoxy-2-tetoralone] | 2267%
21 | COc1ccc2c(c1)CCC(=O)C2 [6-methoxy-2-tetoralone] | 156%
22 | COc1ccc2c(c1)CC(=O)CC2 [7-methoxy-2-tetoralone] | 7084%
23 | O=C1CCN(Cc2ccccc2)C1 [N-benzyl-3-pyrrolidinone] | 100%
24 | CC(C)=O [acetone] | 194%
25 | CC(=O)c1ccccc1 [acetophenone] | 181%

Row | Compound | % activity (relative value, activity to N-benzyl-3-pyrrolidinone taken as 100%)
26 | CC(=O)CC(C)=O [acetylacetone] | 1354%
27 | O=Cc1ccccc1 [benzaldehyde] | 21%
28 | O=C(c1ccccc1)C(O)c1ccccc1 (stereo not drawn) [benzoin] | 13%
29 | CC(=O)CC(=O)OCc1ccccc1 [benzyl acetoacetate] | 2015%
30 | CC(=O)CCc1ccccc1 [benzylacetone] | 410%
31 | O=C1CCCC1 [cyclopentanone] | 103%
32 | CC(=O)C1CC1 [cyclopropyl methyl ketone] | 20%
33 | CC(=O)C(C)=O [diacetyl] | 1614%
34 | CCC(=O)CC [diethyl ketone] | 32%
35 | CC1(C)COC(=O)C1=O [dihydro-4,4-dimethyl-2,3-furandione] | 1314%
36 | CCOC(=O)C(Cl)C(=O)c1ccccc1 (stereo not drawn) [ethyl 2-chloro-3-oxo-3-phenyloropionate] | 52%
37 | CCOC(=O)C(Cl)C(C)=O (stereo not drawn) [ethyl 2-chloroacetoacetate] | 8907%
38 | C=CC(C(C)=O)C(=O)OCC (stereo not drawn) [ethyl 2-eteneacetoacetate] | 429%
39 | CCOC(=O)C(C)C(C)=O (stereo not drawn) [ethyl 2-methylacetoacetate] | 239%
40 | CCCCCCCCC(=O)C(=O)OCC [ethyl 2-oxodecanoate] | 18%
41 | CCOC(=O)C1CCC(=O)C1 (stereo not drawn) [ethyl 3-oxocyclopentane carboxylate] | 87%
42 | CCOC(=O)CC(=O)COC(C)=O [ethyl 4-acetoxyacetoacetate] | 4234%
43 | CCOC(=O)CC(=O)CN=[N+]=[N-] [ethyl 4-azideacetoacetate] | 804%
44 | CCOC(=O)CC(=O)COCc1ccccc1 [ethyl 4-benzyloxyacetoacetate] | 3186%
45 | CCOC(=O)CC(=O)CBr [ethyl 4-bromoacetoacetate] | 4099%
46 | CCOC(=O)CC(=O)CCl [ethyl 4-chloroacetoacetate] | 683%
47 | CCOC(=O)CC(=O)CO [ethyl 4-hydroxyacetoacetate] | 1774%
48 | CCOC(=O)CC(C)=O [ethyl acetoacetate] | 4236%
49 | CCOC(=O)CC(=O)c1ccccc1 [ethyl benzoylacetate] | 98%
50 | CCOC(=O)C(C)=O [ethyl pyruvate] | 6232%

Row | Compound | % activity (relative value, activity to N-benzyl-3-pyrrolidinone taken as 100%)
51 | O=CCCCC=O [glutaraldehyde] | 1339%
52 | CC(=O)CO [hydroxyacetone] | 100%
53 | CC(=O)CCC(=O)O [levulinic acid] | 11%
54 | O=Cc1cccc(Cl)c1 [m-chlorobenzaldehyde] | 301%
55 | CC(=O)c1cccc(O)c1 [m-hydroxyacetophenone] | 61%
56 | CC(=O)c1cccc([N+](=O)[O-])c1 [m-nitroacetophenone] | 6927%
57 | O=Cc1cccc([N+](=O)[O-])c1 [m-nitrobenzaldehyde] | 683%
58 | COC(=O)CC(C)=O [methyl acetoacetate] | 8341%
59 | CC(=O)C=O [methyl glyoxal] | 345%
60 | COC(=O)C(C)=O [methyl pyruvate] | 1889%
61 | CCCC=O [n-butylaldehyde] | 728%
62 | CCCCCC=O [n-hexylaldehyde] | 2225%
63 | CCCCCCCCOC(=O)CC(=O)CCl [n-octyl 4-chloroacetoacetate] | 224%
64 | O=Cc1ccccc1Cl [o-chlorobenzaldehyde] | 9%
65 | O=Cc1ccccc1[N+](=O)[O-] [o-nitrobenzaldehyde] | 33%
66 | O=C(O)CC(=O)C(=O)O [oxalacetic acid] | 14%
67 | CC(=O)c1ccc(Cl)cc1 [p-chloroacetophenone] | 2354%
68 | O=Cc1ccc(Cl)cc1 [p-chlorobenzaldehyde] | 117%
69 | CC(=O)c1ccc(C)cc1 [p-methylacetophenone] | 521%
70 | O=Cc1ccc([N+](=O)[O-])cc1 [p-nitrobenzaldehyde] | 1296%
71 | CCC=O [propionaldehyde] | 204%
72 | CCC(=O)c1ccccc1 [propiophenone] | 27%
73 | O=Cc1ccncc1 [pyridine-4-aldehyde] | 441%
74 | CC(=O)CC(=O)OC(C)(C)C [tert-butyl acetoacetate] | 5634%

Test system: not listed separately
Assay: Determination of enzyme properties of purified RDR
Format: biochemical
Settings: N-benzyl-3-pyrrolidinone 5 mM, coenzyme 0.25 mM, pH 6.5, 30° C.
Method: RDR obtained in Example 1 was investigated as to its enzymatic properties. Fundamentally, the enzyme activity was measured by adding the substrate N-benzyl-3-pyrrolidinone (5 mM), the coenzyme […] (0.25 mM) and the enzyme to 100 mM phosphate buffer (pH 6.5), allowing the reaction to proceed at 30° C. for 1 minute, and then measuring the decrease in absorbance at a wavelength of 340 nm.
In the presence of NADH as a coenzyme, the enzyme acted on N-benzyl-3-pyrrolidinone to form (R)-N-benzyl-3-pyrrolidinol with an optical purity of 99.9% ee or more. The enzyme activity measured with NADPH as a coenzyme by the above method was about 0.6% of the activity obtained by using NADH as a coenzyme.
Enzyme activity measurements were carried out by the same enzyme activity measurement method as mentioned above except that the pH was varied in the range of 4.0 to 8.0 using, as the buffer, 100 mM phosphate buffer and 100 mM acetate buffer.
Enzyme activity measurements were carried out by the same enzyme activity measurement method as mentioned above except that the temperature was varied from 20° C. to 60° C.

Row | Compound | enzyme activity with NADPH as a coenzyme relative to the activity with NADH as a coenzyme
75 | RDR: purified enzyme from Devosia riboflavina IFO 13584 stereoselectively reducing N-benzyl-3-pyrrolidinone to (R)-N-benzyl-3-pyrrolidinol | about 0.6%
